Results as given in the supplement of paper PMC10307832.

Key:
Experiment in all cases: relative viability (nuclei count vs DMSO), 5 days (fraction); higher = more cells survive
Tipifarnib + Bortezomib = compound: Cn1cncc1[C@@](N)(c1ccc(Cl)cc1)c1ccc2c(c1)c(-c1cccc(Cl)c1)cc(=O)n2C [Tipifarnib] + CC(C)C[C@H](NC(=O)[C@H](Cc1ccccc1)NC(=O)c1cnccn1)B(O)O [Bortezomib] (partner 0.002 µM)
Method in brief: (§1)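 After 5 days of treatment, lung cancer cells in 1536-well plates were fixed and stained in a single step (final 0.05% Triton X-100, 1% formaldehyde, 1 ug/ml Hoechst) and their nuclei counted on 4× images. Treatment had been applied by pin tool the day after seeding as one drug alone or as a fixed anchor-drug dose with five library-drug doses (not always all listed) in √10 steps. Relative viability is the nuclei count of treated wells divided by that of vehicle wells, and values are medians of duplicate plates.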

Tipifarnib + Lapatinib = compound: Cn1cncc1[C@@](N)(c1ccc(Cl)cc1)c1ccc2c(c1)c(-c1cccc(Cl)c1)cc(=O)n2C [Tipifarnib] + CS(=O)(=O)CCNCc1ccc(-c2ccc3ncnc(Nc4ccc(OCc5cccc(F)c5)c(Cl)c4)c3c2)o1 [Lapatinib] (partner 2 µM)
Method in brief: as §1

Tipifarnib + AZD7762 = compound: Cn1cncc1[C@@](N)(c1ccc(Cl)cc1)c1ccc2c(c1)c(-c1cccc(Cl)c1)cc(=O)n2C [Tipifarnib] + NC(=O)Nc1cc(-c2cccc(F)c2)sc1C(=O)N[C@H]1CCCNC1 [AZD7762] (partner 0.2 µM)
Method in brief: as §1

Tipifarnib + Decitabine = compound: Cn1cncc1[C@@](N)(c1ccc(Cl)cc1)c1ccc2c(c1)c(-c1cccc(Cl)c1)cc(=O)n2C [Tipifarnib] + Nc1ncn([C@H]2C[C@H](O)[C@@H](CO)O2)c(=O)n1 [Decitabine] (partner 2 µM)
Method in brief: as §1

Row | Cell Line | relative viability (Tipifarnib + Bortezomib; first compound 0.01 µM) | relative viability (Tipifarnib + Bortezomib; first compound 0.03162 µM) | relative viability (Tipifarnib + Bortezomib; first compound 0.1 µM) | relative viability (Tipifarnib + Bortezomib; first compound 0.3162 µM) | relative viability (Tipifarnib + Bortezomib; first compound 1 µM) | relative viability (Tipifarnib + Lapatinib; first compound 0.01 µM) | relative viability (Tipifarnib + Lapatinib; first compound 0.03162 µM) | relative viability (Tipifarnib + Lapatinib; first compound 0.1 µM) | relative viability (Tipifarnib + Lapatinib; first compound 0.3162 µM) | relative viability (Tipifarnib + Lapatinib; first compound 1 µM) | relative viability (Tipifarnib + AZD7762; first compound 0.01 µM) | relative viability (Tipifarnib + AZD7762; first compound 0.03162 µM) | relative viability (Tipifarnib + AZD7762; first compound 0.1 µM) | relative viability (Tipifarnib + AZD7762; first compound 0.3162 µM) | relative viability (Tipifarnib + AZD7762; first compound 1 µM) | relative viability (Tipifarnib + Decitabine; first compound 0.01 µM) | relative viability (Tipifarnib + Decitabine; first compound 0.03162 µM) | relative viability (Tipifarnib + Decitabine; first compound 0.1 µM) | relative viability (Tipifarnib + Decitabine; first compound 0.3162 µM) | relative viability (Tipifarnib + Decitabine; first compound 1 µM)
1 | 201T | 1.12 | 1.14 | 1.06 | 1.05 | 0.788 | 0.988 | 1.05 | 0.965 | 0.947 | 0.866 | 0.679 | 0.628 | 0.573 | 0.546 | 0.449 | 0.875 | 0.841 | 0.88 | 0.783 | 0.816
2 | A549 | – | – | – | – | – | 1.09 | 0.793 | 0.643 | 0.439 | 0.302 | – | – | – | – | – | 0.243 | 0.32 | 0.143 | 0.124 | 0.0674
3 | A-427 | 0.987 | 0.941 | 0.964 | 0.856 | 0.634 | 1 | 1.13 | 1.08 | 0.893 | 0.46 | 0.837 | 0.79 | 0.553 | 0.599 | 0.601 | 0.621 | 0.548 | 0.574 | 0.478 | 0.449
4 | ABC-1 | 0.31 | – | 0.212 | 0.253 | 0.291 | 1.37 | 1.39 | 1.58 | 1.39 | 1.59 | 1.04 | – | – | 0.558 | 0.54 | 1.33 | 1.03 | 1.13 | 0.738 | 0.706
5 | BEN | 0.81 | 0.81 | 0.628 | 0.652 | 0.604 | 0.743 | 0.842 | 0.629 | 0.578 | 0.568 | 0.738 | 0.659 | 0.629 | 0.663 | 0.528 | 0.748 | 0.759 | 0.66 | 0.699 | 0.503
6 | CAL-12T | 0.791 | 0.75 | 0.714 | 0.719 | 0.318 | 0.709 | 0.716 | 0.619 | 0.525 | 0.393 | 0.635 | 0.549 | 0.62 | 0.408 | 0.425 | – | – | – | – | –
7 | COR-L23 | 0.914 | 0.647 | 0.708 | 0.501 | 0.486 | 0.942 | 0.641 | 0.739 | 0.582 | 0.4 | – | – | – | – | – | 0.526 | 0.329 | 0.375 | 0.347 | 0.288
8 | COR-L 105 | 0.869 | 0.591 | 0.706 | 0.444 | 0.403 | 0.418 | 0.317 | 0.349 | 0.378 | 0.296 | – | – | – | – | – | 0.635 | 0.636 | 0.478 | 0.479 | 0.473
9 | Calu-6 | 0.928 | 0.662 | 0.634 | 0.529 | 0.544 | 1.02 | 0.801 | 0.771 | 0.599 | 0.535 | – | – | – | – | – | – | – | – | – | –
10 | ChaGo-K-1 | 0.976 | 1 | 0.954 | 0.978 | 0.53 | – | – | – | – | – | 0.904 | 0.936 | 0.931 | 0.745 | 0.411 | 0.542 | 0.535 | 0.549 | 0.483 | 0.465
11 | EKVX | 1.13 | 1.01 | 0.903 | 0.699 | 0.607 | 0.202 | 0.21 | 0.185 | 0.189 | 0.17 | 0.795 | 0.756 | 0.607 | 0.537 | 0.337 | 0.299 | 0.34 | 0.261 | 0.289 | 0.275
12 | IA-LM | 0.354 | 0.407 | 0.28 | 0.292 | 0.265 | 0.295 | 0.192 | 0.215 | 0.144 | 0.156 | – | – | – | – | – | – | – | – | – | –
13 | LCLC-103H | 1.06 | 0.79 | 0.973 | 0.832 | 0.581 | – | – | – | – | – | 0.784 | 0.76 | 0.735 | 0.713 | 0.679 | 0.757 | 0.672 | 0.785 | 0.635 | 0.673
14 | LK-2 | – | – | – | – | – | 0.824 | 0.801 | 0.8 | 0.678 | 0.629 | 0.769 | 0.357 | 0.256 | 0.17 | 0.104 | 0.375 | 0.266 | 0.276 | 0.265 | 0.139
15 | NCI-H358 | – | – | – | – | – | 0.455 | 0.444 | 0.443 | 0.424 | 0.352 | 0.563 | 0.511 | 0.575 | 0.382 | 0.378 | 0.202 | 0.203 | 0.243 | 0.278 | 0.183
16 | NCI-H441 | 0.685 | 0.2 | 0.432 | 0.207 | 0.185 | – | – | – | – | – | 1.21 | 0.904 | 0.938 | 0.723 | 0.598 | 0.217 | 0.241 | 0.237 | 0.204 | 0.183
17 | NCI-H520 | 0.506 | 0.203 | 0.636 | 0.246 | 0.173 | 0.996 | 0.79 | 0.838 | 0.708 | 0.321 | – | – | – | – | – | 0.583 | 0.469 | 0.627 | 0.401 | 0.424
